According to US20250136614A1, “2,7-SUBSTITUTED PYRROLO[2,1-F][1,2,4]TRIAZINE COMPOUND HAVING PROTEIN KINASE INHIBITORY ACTIVITY” (Magicbullettherapeutics Co., Ltd., priority 2021, published 2025):
Positions count from the first letter of the chain named.

What was measured:
Test in all cases: Ba/F3 cell growth inhibition (CellTiter-Glo, 72 hours)
Format in all cases: cell-based
[1] = target: T1, Ba/F3 FLT3 (ITD/D835YF691L) (Homo sapiens, UniProt P36888, F691L/D835Y, cells depend on it, form not given); conditions: read-out: Ba/F3 GI50s (μM) FLT3 (ITD/D835YF691L)
T1 sequence (P36888 1-993 F691L/D835Y): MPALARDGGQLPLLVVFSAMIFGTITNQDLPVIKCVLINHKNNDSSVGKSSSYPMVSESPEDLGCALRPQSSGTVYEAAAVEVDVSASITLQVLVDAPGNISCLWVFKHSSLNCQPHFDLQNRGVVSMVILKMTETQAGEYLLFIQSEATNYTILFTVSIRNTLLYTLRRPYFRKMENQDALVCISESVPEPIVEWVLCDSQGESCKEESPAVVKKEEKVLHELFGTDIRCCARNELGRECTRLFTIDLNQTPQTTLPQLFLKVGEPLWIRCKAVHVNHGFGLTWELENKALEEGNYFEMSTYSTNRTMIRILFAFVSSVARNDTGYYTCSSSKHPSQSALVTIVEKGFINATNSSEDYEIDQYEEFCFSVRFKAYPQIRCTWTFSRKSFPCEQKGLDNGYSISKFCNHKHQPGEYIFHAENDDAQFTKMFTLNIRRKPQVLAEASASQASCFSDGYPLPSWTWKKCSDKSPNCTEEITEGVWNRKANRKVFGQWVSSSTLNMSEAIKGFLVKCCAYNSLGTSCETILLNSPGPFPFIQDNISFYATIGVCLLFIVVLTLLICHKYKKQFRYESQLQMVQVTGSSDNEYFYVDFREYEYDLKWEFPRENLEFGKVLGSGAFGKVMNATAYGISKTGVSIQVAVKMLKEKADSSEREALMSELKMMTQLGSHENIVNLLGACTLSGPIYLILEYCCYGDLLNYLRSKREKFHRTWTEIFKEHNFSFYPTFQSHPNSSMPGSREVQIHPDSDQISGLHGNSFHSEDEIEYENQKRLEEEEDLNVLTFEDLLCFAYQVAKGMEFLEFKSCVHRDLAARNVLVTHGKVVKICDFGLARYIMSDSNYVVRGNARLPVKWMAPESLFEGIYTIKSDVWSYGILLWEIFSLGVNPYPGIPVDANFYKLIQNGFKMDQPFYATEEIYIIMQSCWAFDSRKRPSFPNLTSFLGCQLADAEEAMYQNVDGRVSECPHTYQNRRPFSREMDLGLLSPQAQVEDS
Experimental: (§1) Seeding 3000 cells per well in a 96-well plate. After cell stabilization, treat the cells with compounds diluted in […] at a ⅓ serial dilution and culture for 72 hours. Following treatment with CellTiter-Glo, luminescence is produced only in the presence of ATP, as luciferase degrades luciferin. Luminescence values were measured using Envision (PerkinElmer). Based on the measured luminescence values, the concentration of compounds causing cell death was calculated to determine the GI50 value.
(§2) The activity values were categorized into three levels. • A: IC50<1 μM • B: 1 μM≤IC50<10 μM, • C: IC50≥10 μM

Ba/F3 parental = conditions: Mus musculus, BaF3, Ba/F3 parental cells, read-out: Ba/F3 GI50s (μM) parental
Experimental: as §1, §2

Ba/F3 FLT3 (ITD) = target: T2, Ba/F3 FLT3 (ITD) (Homo sapiens, UniProt P36888, cells depend on it, form not given); conditions: read-out: Ba/F3 GI50s (μM) FLT3 (ITD)
T2 sequence (P36888 1-993): T1 sequence (P36888 1-993 F691L/D835Y) with L691F, Y835D
Experimental: as §1, §2

| GI50 [1] | GI50 (Ba/F3 FLT3 (ITD)) | SMILES | IC50 (Ba/F3 parental) |
| --- | --- | --- | --- |
| < 1 µM | < 1 µM | CS(=O)(=O)Nc1cccc(-c2ccc3cnc(Nc4ccc(N5CCN(CCCCCCCOc6cccc7c6C(=O)N(C6CCC(=O)NC6=O)C7=O)CC5)cc4)nn23)c1 (stereo not drawn) [Example 41] | 1 to 10 µM |
| ≥ 10 µM | 1 to 10 µM | O=C1CCCCCCOc2ccc(cc2F)-c2ccc3cnc(nn23)Nc2ccc(cc2)OCCCN1 [Example 20, (Z)-13-fluoro-5,17-dioxa-3,9-diaza-2(7,2)-pyrrolo[2,1-f][1,2,4]triazina-1,4(1,4)-dibenzenacycloheptadecaphan-10-one] | ≥ 10 µM |
| 1 to 10 µM | < 1 µM | O=C1CCCCCCOc2ccc(cc2)-c2ccc3cnc(nn23)Nc2ccc(cc2)OCCCN1 [Example 29, (Z)-5,17-dioxa-3,9-diaza-2(7,2)-pyrrolo[2,1-f][1,2,4]triazina-1,4(1,4)-dibenzenacycloheptadecaphan-10-one] | ≥ 10 µM |
| ≥ 10 µM | < 1 µM | Cc1ncsc1-c1ccc(CNC(=O)[C@@H]2C[C@@H](O)CN2C(=O)[C@@H](NC(=O)COCCN2CCN(c3ccc(Nc4ncc5ccc(-c6cccc(NS(C)(=O)=O)c6)n5n4)cc3)CC2)C(C)(C)C)cc1 [Example 83, (2S,4R)-1-((S)-3,3-dimethyl-2-(2-(2-(4-(4-((7-(3-(methanesulfonamido)phenyl)pyrrolo[2,1-f][1,2,4]triazin-2-yl)amino)phenyl)piperazin-1-yl)ethoxy)acetaamino)butanoyl)-4-hydroxy-N-(4-(4-methylthiazol-5-yl)benzyl)pyrrolidin-2-carboxamide] | 1 to 10 µM |
| 1 to 10 µM | < 1 µM | O=C1CCCCCCOc2ccc(cc2)-c2ccc3cnc(nn23)Nc2ccc(cc2)N2CCN(CCCN1)CC2 [Example 23, (Z)-17-oxa-3,9-diaza-2(7,2)-pyrrolo[2,1-f][1,2,4]triazina-5(1,4)-piperazina-1,4(1,4)-dibenzenacycloheptadecaphan-10-one] | ≥ 10 µM |
| < 1 µM | < 1 µM | O=C1CCCCOc2ccc(cc2)-c2ccc3cnc(nn23)Nc2cnn(c2)CCCN1 [Example 36, (2^1Z,4^4E)-4^1H-14-oxa-3,8-diaza-2(7,2)-pyrrolo[2,1-f][1,2,4]triazina-4(4,1)-pyrazola-1(1,4)-benzenacyclotetradecaphan-9-one] | 1 to 10 µM |
| < 1 µM | < 1 µM | c1cc2ccc1Nc1ncc3ccc(n3n1)-c1ccc(cc1)OCCNCCCO2 [Example 30, (Z)-5,12-dioxa-3,9-diaza-2(7,2)-pyrrolo[2,1-f][1,2,4]triazina-1,4(1,4)-dibenzenacyclododecaphane] | ≥ 10 µM |
| < 1 µM | < 1 µM | CS(=O)(=O)Nc1cccc(-c2ccc3cnc(Nc4ccc(N5CCN(CCCOc6cccc7c6C(=O)N(C6CCC(=O)NC6=O)C7=O)CC5)cc4)nn23)c1 (stereo not drawn) [Example 40] | 1 to 10 µM |
| < 1 µM | < 1 µM | O=C1CCCCCCOc2ccc(cc2)-c2ccc3cnc(nn23)Nc2cnn(c2)C2CCN(CCCN1)CC2 [Example 27, (2^1Z,4^4E)-4^1H-17-oxa-3,9-diaza-2(7,2)-pyrrolo[2,1-f1][1,2,4]triazina-5(4,1)-piperidina-4(4,1)-pyrazola-1(1,4)-benzenacycloheptadecaphan-10-one] | 1 to 10 µM |
| 1 to 10 µM | 1 to 10 µM | O=C1CCCCCCn2cc(cn2)-c2ccc3cnc(nn23)Nc2ccc(cc2)OCCCN1 [Example 17, (1^4Z,2^1Z)-1′H-5-oxa-3,9-diaza-2(7,2)-pyrrolo[2,1-f][1,2,4]triazina-1(4,1)-pyrazola-4(1,4)-benzenacyclohexadecaphan-10-one] | ≥ 10 µM |
| ≥ 10 µM | ≥ 10 µM | CS(=O)(=O)Nc1cccc(-c2ccc3cnc(Nc4ccc(N5CCN(CCCCCOc6cccc7c6C(=O)N(C6CCC(=O)NC6=O)C7=O)CC5)cc4)nn23)c1 (stereo not drawn) [Example 39] | ≥ 10 µM |
| < 1 µM | < 1 µM | O=C1CCCCOc2ccc(cc2)-c2ccc3cnc(nn23)Nc2cnn(c2)C2CCN(CCCN1)CC2 [Example 26, (2^1Z,4^4E)-4^1H-15-oxa-3,9-diaza-2(7,2)-pyrrolo[2,1-f1][1,2,4]triazina-5(4,1)-piperidina-4(4,1)-pyrazola-1(1,4)-benzenacyclopentadecaphan-10-one] | ≥ 10 µM |
| 1 to 10 µM | < 1 µM | CS(=O)(=O)Nc1cccc(-c2ccc3cnc(Nc4ccc(N5CCN(CCCCCCCCCCCOc6cccc7c6C(=O)N(C6CCC(=O)NC6=O)C7=O)CC5)cc4)nn23)c1 (stereo not drawn) [Example 42] | 1 to 10 µM |
| 1 to 10 µM | 1 to 10 µM | COc1cc2ccc1Nc1ncc3ccc(n3n1)-c1ccc(cc1)OCCOCC(=O)NCCCO2 [Example 34, (Z)-42-methoxy-5,12,15-trioxa-3,9-diaza-2(7,2)-pyrrolo[2,1-f][1,2,4]triazina-1,4(1,4)-dibenzenacyclopentadecaphan-10-one] | ≥ 10 µM |

| SMILES | GI50 [1] | GI50 (Ba/F3 FLT3 (ITD)) | IC50 (Ba/F3 parental) |
| --- | --- | --- | --- |
| CN1CCCn2cc(cn2)Nc2ncc3ccc(n3n2)-c2ccc(cc2)OCC1 [Example 2] | < 1 µM | < 1 µM | 1 to 10 µM |
| COc1cccc(NC(=O)N2CCCn3cc(cn3)Nc3ncc4ccc(n4n3)-c3ccc(cc3)OCC2)c1 [Example 7, (2^1Z,4^4E)-N-(3-methoxyphenyl)-4^1H-11-oxa-3,8-diaza-2(7,2)-pyrrolo[2,1-f][1,2,4]triazina-4(4,1)-pyrazola-1(1,4)-benzenecycloundecaphane-8-carboxamide] | 1 to 10 µM | < 1 µM | ≥ 10 µM |
| CC(=O)N1CCCn2cc(cn2)Nc2ncc3ccc(n3n2)-c2ccc(cc2)OCC1 [Example 3, 1-((2^1Z,4^4E)-4^1H-11-oxa-3,8-diaza-2(7,2)-pyrrolo[2,1-f1][1,2,4]triazina-4(4,1)-pyrazola-1(1,4)-benzenacycloundecaphane-8-yl)ethan-1-one] | < 1 µM | < 1 µM | 1 to 10 µM |
| CS(=O)(=O)N1CCCn2cc(cn2)Nc2ncc3ccc(n3n2)-c2ccc(cc2)OCC1 [Example 9, (2^1Z,4^4E)-8-(methylsulfonyl)-4^1H-11-oxa-3,8-diaza-2(7,2)-pyrrolo[2,1-f][1,2,4]triazina-4(4,1)-pyrazola-1(1,4)-benzenecycloundecaphane] | < 1 µM | < 1 µM | 1 to 10 µM |
